Laboratory results published in PMC7438494 (Communications Biology, 2020).
“And” between values parts separate entries of the source, which are not always exact repeats. Equal entries are not always repeated. Where two headings read alike, the source gives them in different places.

Assays:
[1] = target: yeast mitochondrial ATP synthase (Saccharomyces cerevisiae, UniProt P00854+P61829); assay: biochemical; details: for inhibition at 1 µM: read-out: % inhibition; for activity at 6 µM / inhibition at 6 µM: Bedaquiline 6 μM
human mitoplasts = assay: Membrane potential of human mitoplasts, fluorescence quenching of Rhodamine 123; type: biochemical; details: high concentrations
Method: The membrane potential was assessed by measuring fluorescence quenching of Rhodamine 123 at 488 nm excitation and 525 nm emission in a buffer containing 0.65 M mannitol, 20 mM bis-tris-propane, 2 mM tris-phosphate, 0.3 mM EGTA, pH 6.8 with Rhodamine 123 dissolved in methanol (1.0 µM). Yeast mitochondria were energized with ethanol (0.4% v/v), whereas human mitochondria were energized with glutamate/malate (5 mM/2.5 mM).

[2] = tested on: human mitochondrial ATP synthase; details: reviewer's remark; ref previous reports; read-out: IC50, ATPase activity of human mitochondrial ATP synthase; cited from earlier work
[3] = 1st exp (1-11-19), Bedaquiline 0.05 μM, frozen yeast mito, 60 min
[4] = 1st exp (1-11-19), Bedaquiline 0.1 μM, frozen yeast mito, 60 min
[5] = 1st exp (1-11-19), Bedaquiline 0.5 μM, frozen yeast mito, 60 min
[6] = 1st exp (1-11-19), Bedaquiline 1 μM, frozen yeast mito, 60 min
[7] = 1st exp (1-11-19), Bedaquiline 1.4 μM, frozen yeast mito, 60 min
[8] = 1st exp (1-11-19), Bedaquiline 2 μM, frozen yeast mito, 60 min
[9] = 1st exp (1-11-19), Bedaquiline 3 μM, frozen yeast mito, 60 min
[10] = 1st exp (1-11-19), Bedaquiline 4 μM, frozen yeast mito, 60 min
[11] = 1st exp (1-11-19), frozen yeast mito, 60 min
[12] = 2nd exp (1-29-19), Bedaquiline 0.005 μM (duplicate), frozen yeast mito, 60 min
[13] = 2nd exp (1-29-19), Bedaquiline 0.05 μM, frozen yeast mito, 60 min
[14] = 2nd exp (1-29-19), Bedaquiline 0.1 μM, frozen yeast mito, 60 min
[15] = 2nd exp (1-29-19), Bedaquiline 0.5 μM, frozen yeast mito, 60 min
[16] = 2nd exp (1-29-19), Bedaquiline 1 μM, frozen yeast mito, 60 min
[17] = 2nd exp (1-29-19), Bedaquiline 1.4 μM, frozen yeast mito, 60 min
[18] = 2nd exp (1-29-19), Bedaquiline 2 μM, frozen yeast mito, 60 min
[19] = 2nd exp (1-29-19), Bedaquiline 4 μM, frozen yeast mito, 60 min
[20] = 2nd exp (1-29-19), frozen yeast mito, 60 min
[21] = 3rd exp (2-1-19), Bedaquiline 0.005 μM, frozen yeast mito, 60 min
[22] = 3rd exp (2-1-19), Bedaquiline 0.05 μM, frozen yeast mito, 60 min
[23] = 3rd exp (2-1-19), Bedaquiline 0.1 μM, frozen yeast mito, 60 min
[24] = 3rd exp (2-1-19), Bedaquiline 0.5 μM, frozen yeast mito, 60 min
[25] = 3rd exp (2-1-19), Bedaquiline 1 μM, frozen yeast mito, 60 min
[26] = 3rd exp (2-1-19), Bedaquiline 1.4 μM, frozen yeast mito, 60 min
[27] = 3rd exp (2-1-19), Bedaquiline 2 μM, frozen yeast mito, 60 min
[28] = 3rd exp (2-1-19), Bedaquiline 4 μM, frozen yeast mito, 60 min
[29] = 3rd exp (2-1-19), frozen yeast mito, 60 min

COc1nc2ccc(Br)cc2cc1[C@@H](c1ccccc1)[C@@](O)(CCN(C)C)c1cccc2ccccc12 [BDQ, Bedaquiline]
Cyanide sensitive ATP synthesis [1, 3]: 49.0688 nmol/min/mg
activity at 0.05 µM [1, 3]: 106%
inhibition at 0.05 µM [1, 3]: -6.06%
Cyanide sensitive ATP synthesis [1, 4]: 39.561 nmol/min/mg
activity at 0.1 µM [1, 4]: 85.5%
inhibition at 0.1 µM [1, 4]: 14.5%
Cyanide sensitive ATP synthesis [1, 5]: 35.6774 nmol/min/mg
activity at 0.5 µM [1, 5]: 77.1%
inhibition at 0.5 µM [1, 5]: 22.9%
Cyanide sensitive ATP synthesis [1, 6]: 21.3622 nmol/min/mg
activity at 1 µM [1, 6]: 46.2%
inhibition at 1 µM [1, 6]: 53.8%
Cyanide sensitive ATP synthesis [1, 7]: 15.4854 nmol/min/mg
activity at 1.4 µM [1, 7]: 33.5%
inhibition at 1.4 µM [1, 7]: 66.5%
Cyanide sensitive ATP synthesis [1, 8]: 8.026 nmol/min/mg
activity at 2 µM [1, 8]: 17.3%
inhibition at 2 µM [1, 8]: 82.7%
Cyanide sensitive ATP synthesis [1, 9]: 3.204 nmol/min/mg
activity at 3 µM [1, 9]: 6.92%
inhibition at 3 µM [1, 9]: 93.1%
Cyanide sensitive ATP synthesis [1, 10]: 1.232 nmol/min/mg
activity at 4 µM [1, 10]: 2.66%
inhibition at 4 µM [1, 10]: 97.3%
activity at 6 µM [1, 11]: 1.64%
inhibition at 6 µM [1, 11]: 98.4%
% activity [1, 12]: 96.7896%
% inhibition [1, 12]: -3.9401% and 3.21%
Cyanide sensitive ATP synthesis [1, 12]: 54.583 nmol/min/mg and 50.828 nmol/min/mg
activity at 0.005 µM [1, 12]: 104%
Cyanide sensitive ATP synthesis [1, 13]: 50.1533 nmol/min/mg
activity at 0.05 µM [1, 13]: 95.5%
inhibition at 0.05 µM [1, 13]: 4.5%
Cyanide sensitive ATP synthesis [1, 14]: 50.0836 nmol/min/mg
activity at 0.1 µM [1, 14]: 95.4%
inhibition at 0.1 µM [1, 14]: 4.63%
Cyanide sensitive ATP synthesis [1, 15]: 46.4023 nmol/min/mg
activity at 0.5 µM [1, 15]: 88.4%
inhibition at 0.5 µM [1, 15]: 11.6%
Cyanide sensitive ATP synthesis [1, 16]: 33.1052 nmol/min/mg
activity at 1 µM [1, 16]: 63%
inhibition at 1 µM [1, 16]: 37%
Cyanide sensitive ATP synthesis [1, 17]: 15.7394 nmol/min/mg
activity at 1.4 µM [1, 17]: 30%
inhibition at 1.4 µM [1, 17]: 70%
Cyanide sensitive ATP synthesis [1, 18]: 6.265 nmol/min/mg
activity at 2 µM [1, 18]: 11.9%
inhibition at 2 µM [1, 18]: 88.1%
activity at 4 µM [1, 19]: 1.16%
inhibition at 4 µM [1, 19]: 98.8%
activity at 6 µM [1, 20]: 0.645%
inhibition at 6 µM [1, 20]: 99.4%
Cyanide sensitive ATP synthesis [1, 21]: 55.7209 nmol/min/mg
activity at 0.005 µM [1, 21]: 101%
inhibition at 0.005 µM [1, 21]: -1.01%
Cyanide sensitive ATP synthesis [1, 22]: 53.0953 nmol/min/mg
activity at 0.05 µM [1, 22]: 96.2%
inhibition at 0.05 µM [1, 22]: 3.75%
Cyanide sensitive ATP synthesis [1, 23]: 53.6873 nmol/min/mg
activity at 0.1 µM [1, 23]: 97.3%
inhibition at 0.1 µM [1, 23]: 2.68%
Cyanide sensitive ATP synthesis [1, 24]: 38.5022 nmol/min/mg
activity at 0.5 µM [1, 24]: 69.8%
inhibition at 0.5 µM [1, 24]: 30.2%
Cyanide sensitive ATP synthesis [1, 25]: 33.4087 nmol/min/mg
activity at 1 µM [1, 25]: 60.6%
inhibition at 1 µM [1, 25]: 39.4%
Cyanide sensitive ATP synthesis [1, 26]: 18.8899 nmol/min/mg
activity at 1.4 µM [1, 26]: 34.2%
inhibition at 1.4 µM [1, 26]: 65.8%
Cyanide sensitive ATP synthesis [1, 27]: 16.8178 nmol/min/mg
activity at 2 µM [1, 27]: 30.5%
inhibition at 2 µM [1, 27]: 69.5%
Cyanide sensitive ATP synthesis [1, 28]: 2.063 nmol/min/mg
activity at 4 µM [1, 28]: 3.74%
inhibition at 4 µM [1, 28]: 96.3%
activity at 6 µM [1, 29]: 1.81%
inhibition at 6 µM [1, 29]: 98.2%
IC50 ([1]; IC50 ± SEM, ATP synthesis, yeast mitochondria): 1100 nM and ~1100 nM
effect on membrane potential, human mitoplasts (human mitoplasts): partial effect
IC50 [2]: 200000 nM
